Measured values from ChEMBL document CHEMBL4813957, “Antitubercular properties of thiazolidin-4-ones - A review” (Eur J Med Chem, 2021).
≈ marks a conversion by molar mass, not a printed value.

Tests used:
Format in all cases: functional
[1] = test system: Mycobacterium tuberculosis variant bovis BCG; assay: Antimycobacterial activity against Mycobacterium bovis BCG ATCC 35734 measured on 12th day by nitrate reductase assay; conditions: ATCC 35734, 288 h, time 12 day
[2] = test system: Mycobacterium tuberculosis; assay: Antimycobacterial activity against extensively drug resistant Mycobacterium tuberculosis measured up to 2 weeks; conditions: 336 h, time weeks <=2
[3] = test system: Mycobacterium tuberculosis; assay: Antimycobacterial activity against multidrug resistant Mycobacterium tuberculosis measured up to 2 weeks; conditions: 336 h, time weeks <=2
[4] = test system: Mycobacterium tuberculosis; assay: Antimycobacterial activity against ethambutol/pyrazinamide/kanamycin/streptomycin/ofloxacin/moxifloxacin/levofloxacin resistant Mycobacterium tuberculosis measured up to 2 weeks; conditions: 336 h, time weeks <=2
[5] = test system: Mycobacterium tuberculosis variant bovis BCG; assay: Antimycobacterial activity against Mycobacterium bovis BCG ATCC35743 by nitrate reductase assay

SMILES | MIC [1] [µg/mL] | also measured
O=C1CSC(c2ccc(OCc3cc4ccccc4n4nnnc34)cc2)N1c1ccccc1 (stereo not drawn) | 9.13 (≈ 20.1 µM) | –
CCOc1ccc(N2C(=O)CSC2c2ccc(OCc3cc4ccccc4n4nnnc34)cc2)cc1 (stereo not drawn) | 7.09 (≈ 14.2 µM) | –
O=C(O)CCCCCC1NC(=O)CS1 (stereo not drawn) | – | MIC [2]: 0.096 µM (≈ 0.0209 µg/mL); MIC [3]: 0.6 µM (≈ 0.13 µg/mL); MIC [4]: 0.2 µM (≈ 0.0435 µg/mL)
O=C1CSC(c2ccc(OCc3cc4ccccc4n4nnnc34)cc2)N1c1ccc([N+](=O)[O-])cc1 (stereo not drawn) | 3.8 (≈ 7.62 µM) | –
O=C1NC(=S)S/C1=C\c1ccc([N+](=O)[O-])cc1 | – | IC90 [5]: 25.7 µg/mL (≈ 96.5 µM)
NC(=O)c1cnccn1 [PYRAZINAMIDE] | 20 (≈ 162 µM) | –
